Experimental data as given in ChEMBL document CHEMBL1201862, “PubChem BioAssay data set” (2004).
Active and inactive are the calls of the source.

Columns and labels:
[1] = HEp-2 cell cytotoxicity, dose response, cytotoxicity control for RSV inhibitor project, HTS (AID 2410); type: functional; details: human respiratory syncytial virus
[2] = biological target: Cysteine protease ATG4B (Homo sapiens, UniProt Q9Y4P1); type: functional;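 also: Fluorescence-based dose-response confirmation assay measuring inhibition of ATG4B activity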
Chain of Cysteine protease ATG4B (Q9Y4P1 whole entry): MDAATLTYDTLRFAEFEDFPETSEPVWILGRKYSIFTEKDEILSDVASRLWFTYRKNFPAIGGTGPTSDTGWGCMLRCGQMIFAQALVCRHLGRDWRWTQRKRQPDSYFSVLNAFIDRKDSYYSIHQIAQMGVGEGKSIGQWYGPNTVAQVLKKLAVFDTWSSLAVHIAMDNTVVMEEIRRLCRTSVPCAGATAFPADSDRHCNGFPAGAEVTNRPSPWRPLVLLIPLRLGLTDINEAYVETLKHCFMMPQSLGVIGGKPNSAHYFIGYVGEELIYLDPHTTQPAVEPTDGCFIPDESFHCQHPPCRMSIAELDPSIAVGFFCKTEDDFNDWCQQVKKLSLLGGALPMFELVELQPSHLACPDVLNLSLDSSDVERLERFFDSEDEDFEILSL

[3] = biological target: Phospholipase A2 (Homo sapiens, UniProt P04054); type: functional;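 also: confirmatory dose-response counterscreen on phospholipase A2, testing hits that came from an ultra-high-throughput screen for ATG4B inhibitors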
Chain of Phospholipase A2 (P04054 whole entry): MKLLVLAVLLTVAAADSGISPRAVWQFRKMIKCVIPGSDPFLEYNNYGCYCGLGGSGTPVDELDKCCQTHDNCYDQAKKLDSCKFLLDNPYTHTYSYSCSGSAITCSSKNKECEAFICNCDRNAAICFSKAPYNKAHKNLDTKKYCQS

[4] = biological target: T1, High affinity choline transporter 1 (Homo sapiens, UniProt Q9GZV3); assay: CHT inhibitors, dose response, cell-based, 5-point CRC, membrane potential dye (AID 504840); type: functional
T1 sequence (Q9GZV3 whole entry): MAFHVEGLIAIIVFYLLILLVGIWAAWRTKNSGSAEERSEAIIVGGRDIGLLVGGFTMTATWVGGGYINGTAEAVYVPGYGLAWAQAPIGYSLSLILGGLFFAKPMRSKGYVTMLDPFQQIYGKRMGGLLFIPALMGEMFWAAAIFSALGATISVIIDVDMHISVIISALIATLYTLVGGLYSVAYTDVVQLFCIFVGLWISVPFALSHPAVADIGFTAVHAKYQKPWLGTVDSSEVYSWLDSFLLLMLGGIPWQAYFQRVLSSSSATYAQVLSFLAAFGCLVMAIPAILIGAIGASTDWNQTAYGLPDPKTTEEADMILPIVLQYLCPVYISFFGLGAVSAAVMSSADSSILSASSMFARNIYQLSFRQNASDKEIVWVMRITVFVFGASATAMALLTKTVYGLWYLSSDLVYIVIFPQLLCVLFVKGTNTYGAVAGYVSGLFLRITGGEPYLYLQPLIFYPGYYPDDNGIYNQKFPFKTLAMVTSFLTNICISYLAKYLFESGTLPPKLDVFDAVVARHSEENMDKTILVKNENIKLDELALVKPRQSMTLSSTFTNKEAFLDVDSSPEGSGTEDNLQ

[5] = biological target: T1, High affinity choline transporter 1; assay: CHT inhibitors, dose response, cell-based, 10-point CRC, membrane potential dye (AID 588401); type: functional;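 also: membrane potential dye fluorescence of choline-evoked depolarization via CHT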
[6] = biological target: T2, Beta-adrenergic receptor kinase 1 (Homo sapiens, UniProt P25098); assay: aptamer displacement from bead-bound GRK2 – biochemical, cherry pick 1, bead flow cytometry, dose response (AID 504500)
T2 sequence (P25098 whole entry): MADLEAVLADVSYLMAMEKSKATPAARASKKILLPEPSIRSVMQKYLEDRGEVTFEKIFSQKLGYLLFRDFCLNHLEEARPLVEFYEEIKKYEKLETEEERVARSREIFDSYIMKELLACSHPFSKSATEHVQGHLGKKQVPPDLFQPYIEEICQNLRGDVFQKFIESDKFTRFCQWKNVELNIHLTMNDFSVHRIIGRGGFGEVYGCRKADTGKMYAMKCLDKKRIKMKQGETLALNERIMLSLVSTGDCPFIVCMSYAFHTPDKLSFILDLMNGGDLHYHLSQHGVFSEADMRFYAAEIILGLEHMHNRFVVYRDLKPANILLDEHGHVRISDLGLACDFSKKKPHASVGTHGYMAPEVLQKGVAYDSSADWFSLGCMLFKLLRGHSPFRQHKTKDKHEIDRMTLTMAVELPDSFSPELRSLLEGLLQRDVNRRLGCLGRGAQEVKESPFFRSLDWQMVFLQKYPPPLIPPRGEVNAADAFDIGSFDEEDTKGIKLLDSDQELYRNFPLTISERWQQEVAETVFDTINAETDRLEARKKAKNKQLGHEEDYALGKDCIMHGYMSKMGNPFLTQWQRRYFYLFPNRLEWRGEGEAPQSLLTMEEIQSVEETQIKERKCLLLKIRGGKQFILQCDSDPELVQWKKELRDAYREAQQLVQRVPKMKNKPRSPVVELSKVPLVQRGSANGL

[7] = biological target: T3, Carboxy-terminal domain RNA polymerase II polypeptide A small phosphatase 1 (Homo sapiens, UniProt Q9GZU7); assay: inhibitors of CTDSP1, concentration-response testing, biochemical assay, absorbance-based, actives from ultra-high-throughput screening (AID 540297); type: functional
T3 sequence (Q9GZU7 whole entry): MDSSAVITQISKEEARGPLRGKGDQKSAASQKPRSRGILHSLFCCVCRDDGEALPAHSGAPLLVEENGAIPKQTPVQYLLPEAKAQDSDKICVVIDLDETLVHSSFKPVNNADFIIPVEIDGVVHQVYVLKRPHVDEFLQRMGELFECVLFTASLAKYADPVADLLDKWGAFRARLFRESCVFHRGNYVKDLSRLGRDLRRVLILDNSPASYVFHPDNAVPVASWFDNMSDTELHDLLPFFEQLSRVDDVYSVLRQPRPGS

[8] = biological target: T4, Caspase-6 (Homo sapiens, UniProt P55212); assay: human caspase-6 inhibitors, dose response, biochemical, VEID-R110 fluorescence, cherry-pick (AID 720632)
T4 sequence (P55212 whole entry): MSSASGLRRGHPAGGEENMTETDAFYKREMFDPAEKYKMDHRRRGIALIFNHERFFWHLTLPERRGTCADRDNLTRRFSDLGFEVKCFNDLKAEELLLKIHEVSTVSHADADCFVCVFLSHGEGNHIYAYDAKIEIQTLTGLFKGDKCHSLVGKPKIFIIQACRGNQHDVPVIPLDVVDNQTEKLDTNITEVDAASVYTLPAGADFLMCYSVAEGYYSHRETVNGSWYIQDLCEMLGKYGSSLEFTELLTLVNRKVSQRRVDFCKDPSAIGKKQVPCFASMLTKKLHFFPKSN

[9] = biological target: Glucose-6-phosphate 1-dehydrogenase (Homo sapiens, UniProt P11413); assay: human G6PD enzyme inhibitors, dose response, selectivity assay for P. falciparum G6PD inhibitor project, biochemical, fluorescence (AID 504792); type: functional
[10] = biological target: Melanocortin receptor 4 (Homo sapiens, UniProt P32245); type: functional, cell-based;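 also: Cell-based assay with luminescence read-out, confirmatory dose-response testing for agonist activity of biased ligands at MC4R; human U2OS cells with tagged receptor and beta-arrestin; potency of agonists that increase receptor coupling to beta-arrestin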
[11] = biological target: Voltage-dependent T-type calcium channel subunit alpha-1H (Homo sapiens, UniProt O95180); type: functional;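 also: channel activity triggered by adding a high calcium stimulation buffer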
Chain of Voltage-dependent T-type calcium channel subunit alpha-1H (O95180 whole entry): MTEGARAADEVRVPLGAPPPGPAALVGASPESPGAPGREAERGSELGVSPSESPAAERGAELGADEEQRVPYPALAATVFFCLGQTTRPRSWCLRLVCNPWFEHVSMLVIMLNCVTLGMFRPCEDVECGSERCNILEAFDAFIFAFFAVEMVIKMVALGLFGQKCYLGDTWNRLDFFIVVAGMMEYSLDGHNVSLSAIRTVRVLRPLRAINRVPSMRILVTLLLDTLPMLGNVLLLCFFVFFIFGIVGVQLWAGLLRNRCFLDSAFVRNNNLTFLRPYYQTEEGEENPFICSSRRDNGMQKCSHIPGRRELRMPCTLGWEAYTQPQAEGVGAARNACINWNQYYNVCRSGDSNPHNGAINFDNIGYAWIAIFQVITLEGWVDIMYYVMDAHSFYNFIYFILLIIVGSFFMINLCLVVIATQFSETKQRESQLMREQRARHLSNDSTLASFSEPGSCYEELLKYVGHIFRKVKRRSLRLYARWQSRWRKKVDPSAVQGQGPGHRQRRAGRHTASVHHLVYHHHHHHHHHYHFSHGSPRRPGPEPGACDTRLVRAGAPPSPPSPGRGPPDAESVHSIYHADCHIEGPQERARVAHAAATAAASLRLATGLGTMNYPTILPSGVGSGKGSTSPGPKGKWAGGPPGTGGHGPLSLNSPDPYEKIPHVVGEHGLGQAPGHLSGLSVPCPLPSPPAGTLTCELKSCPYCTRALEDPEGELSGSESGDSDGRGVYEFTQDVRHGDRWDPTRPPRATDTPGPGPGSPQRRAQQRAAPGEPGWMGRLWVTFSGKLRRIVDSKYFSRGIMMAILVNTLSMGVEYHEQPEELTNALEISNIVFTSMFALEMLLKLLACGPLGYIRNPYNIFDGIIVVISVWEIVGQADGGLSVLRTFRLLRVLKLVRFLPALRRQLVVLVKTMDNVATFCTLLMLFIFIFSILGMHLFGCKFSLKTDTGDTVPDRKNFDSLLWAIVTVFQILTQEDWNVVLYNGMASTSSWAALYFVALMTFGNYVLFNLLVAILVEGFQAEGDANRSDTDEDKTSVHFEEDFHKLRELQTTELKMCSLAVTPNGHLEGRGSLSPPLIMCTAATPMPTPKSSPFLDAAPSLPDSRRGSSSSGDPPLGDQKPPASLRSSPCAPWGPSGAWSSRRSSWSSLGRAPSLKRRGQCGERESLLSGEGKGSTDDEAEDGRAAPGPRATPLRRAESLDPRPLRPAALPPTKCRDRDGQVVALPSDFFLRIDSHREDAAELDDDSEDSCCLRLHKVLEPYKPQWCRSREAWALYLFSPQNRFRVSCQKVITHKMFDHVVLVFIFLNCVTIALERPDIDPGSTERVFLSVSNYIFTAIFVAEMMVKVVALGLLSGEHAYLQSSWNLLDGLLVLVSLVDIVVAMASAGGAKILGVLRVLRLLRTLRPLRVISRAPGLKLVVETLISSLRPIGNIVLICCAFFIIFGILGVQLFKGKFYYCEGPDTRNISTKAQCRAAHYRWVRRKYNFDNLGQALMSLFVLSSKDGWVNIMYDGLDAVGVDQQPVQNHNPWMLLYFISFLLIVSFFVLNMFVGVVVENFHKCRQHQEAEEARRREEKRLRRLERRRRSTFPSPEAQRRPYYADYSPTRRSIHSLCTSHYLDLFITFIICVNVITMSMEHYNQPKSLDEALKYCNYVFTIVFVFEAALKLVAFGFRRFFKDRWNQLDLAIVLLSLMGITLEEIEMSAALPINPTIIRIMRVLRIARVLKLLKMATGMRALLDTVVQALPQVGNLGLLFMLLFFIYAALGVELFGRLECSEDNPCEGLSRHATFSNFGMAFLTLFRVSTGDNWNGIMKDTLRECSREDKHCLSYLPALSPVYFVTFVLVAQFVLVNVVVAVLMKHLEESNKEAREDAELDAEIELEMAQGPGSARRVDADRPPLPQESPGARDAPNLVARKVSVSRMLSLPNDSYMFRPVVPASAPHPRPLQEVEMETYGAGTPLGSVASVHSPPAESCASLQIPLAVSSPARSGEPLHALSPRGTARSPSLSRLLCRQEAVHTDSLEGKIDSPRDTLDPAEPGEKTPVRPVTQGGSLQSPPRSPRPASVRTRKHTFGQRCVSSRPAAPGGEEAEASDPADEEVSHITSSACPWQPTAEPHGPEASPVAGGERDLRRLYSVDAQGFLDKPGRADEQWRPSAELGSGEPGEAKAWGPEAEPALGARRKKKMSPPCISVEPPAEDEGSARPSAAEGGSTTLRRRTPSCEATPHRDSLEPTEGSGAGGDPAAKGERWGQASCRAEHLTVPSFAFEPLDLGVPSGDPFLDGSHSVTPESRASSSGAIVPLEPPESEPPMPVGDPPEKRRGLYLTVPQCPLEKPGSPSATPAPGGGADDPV

[12] = biological target: DNA (cytosine-5)-methyltransferase 1 (Homo sapiens, UniProt P26358); assay: DNMT1 methyltransferase inhibitors, confirmation, biochemical, fluorescent molecular beacon (AID 602386); type: functional
Chain of DNA (cytosine-5)-methyltransferase 1 (P26358 whole entry): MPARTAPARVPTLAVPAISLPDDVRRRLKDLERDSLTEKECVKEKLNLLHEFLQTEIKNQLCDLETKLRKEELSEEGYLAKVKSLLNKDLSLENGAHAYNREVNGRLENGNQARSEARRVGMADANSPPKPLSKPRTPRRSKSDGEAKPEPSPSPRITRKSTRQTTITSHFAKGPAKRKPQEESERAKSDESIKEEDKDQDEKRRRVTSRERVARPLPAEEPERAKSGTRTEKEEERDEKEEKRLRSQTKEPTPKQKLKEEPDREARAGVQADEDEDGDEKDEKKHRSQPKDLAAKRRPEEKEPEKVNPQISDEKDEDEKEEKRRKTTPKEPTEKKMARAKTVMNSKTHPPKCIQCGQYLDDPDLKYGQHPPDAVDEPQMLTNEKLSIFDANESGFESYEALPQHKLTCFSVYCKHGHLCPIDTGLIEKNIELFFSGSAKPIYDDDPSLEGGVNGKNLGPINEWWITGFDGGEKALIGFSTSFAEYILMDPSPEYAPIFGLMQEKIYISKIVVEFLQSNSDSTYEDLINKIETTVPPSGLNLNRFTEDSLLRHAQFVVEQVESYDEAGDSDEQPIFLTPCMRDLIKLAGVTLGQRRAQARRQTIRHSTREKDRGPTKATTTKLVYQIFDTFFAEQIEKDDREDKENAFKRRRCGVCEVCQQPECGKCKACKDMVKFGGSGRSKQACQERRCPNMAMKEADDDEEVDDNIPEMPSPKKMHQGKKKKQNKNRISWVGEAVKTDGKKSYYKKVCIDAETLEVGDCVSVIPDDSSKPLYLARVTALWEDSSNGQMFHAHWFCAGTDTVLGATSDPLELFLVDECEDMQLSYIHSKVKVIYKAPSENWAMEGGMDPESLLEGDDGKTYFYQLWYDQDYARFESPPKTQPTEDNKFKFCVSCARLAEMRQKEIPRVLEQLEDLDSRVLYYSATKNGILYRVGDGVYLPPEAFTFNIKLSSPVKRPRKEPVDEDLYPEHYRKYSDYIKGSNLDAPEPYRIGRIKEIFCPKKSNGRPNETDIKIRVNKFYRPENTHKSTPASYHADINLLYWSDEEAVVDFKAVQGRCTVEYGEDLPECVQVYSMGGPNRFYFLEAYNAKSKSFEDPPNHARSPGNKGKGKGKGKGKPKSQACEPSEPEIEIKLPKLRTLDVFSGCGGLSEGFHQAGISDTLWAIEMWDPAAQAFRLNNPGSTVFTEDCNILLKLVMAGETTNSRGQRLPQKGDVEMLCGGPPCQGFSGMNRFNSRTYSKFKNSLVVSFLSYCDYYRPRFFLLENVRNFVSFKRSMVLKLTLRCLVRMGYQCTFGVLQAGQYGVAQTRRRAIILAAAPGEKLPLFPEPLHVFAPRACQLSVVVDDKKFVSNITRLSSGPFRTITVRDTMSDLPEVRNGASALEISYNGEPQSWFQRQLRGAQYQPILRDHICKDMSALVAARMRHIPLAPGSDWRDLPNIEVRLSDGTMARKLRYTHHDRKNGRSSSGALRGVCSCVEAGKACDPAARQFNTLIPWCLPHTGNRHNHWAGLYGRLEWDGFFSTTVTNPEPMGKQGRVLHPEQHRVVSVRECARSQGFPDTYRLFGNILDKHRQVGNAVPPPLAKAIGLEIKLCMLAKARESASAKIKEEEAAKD

[13] = biological target: Tyrosine-protein phosphatase non-receptor type 11 (Homo sapiens, UniProt Q06124); assay: SHP2 phosphatase inhibition, dose response, selectivity assay for STEP inhibitor project, biochemical (AID 602367); type: functional; details: read-out: IC50_Mean
[14] = biological target: Tyrosine-protein phosphatase non-receptor type 5 (Homo sapiens, UniProt P54829); assay: STEP phosphatase inhibitors, confirmation, biochemical, fluorescence intensity, uHTS hits (AID 602372); type: functional; details: read-out: IC50_Mean
[15] = biological target: Dual specificity protein phosphatase 3 (Homo sapiens, UniProt P51452); assay: VHR phosphatase inhibition, dose response, selectivity assay for STEP inhibitor project, biochemical (AID 602374); type: functional; details: read-out: IC50_Mean
[16] = biological target: DNA dC->dU-editing enzyme APOBEC-3A (Homo sapiens, UniProt P31941); assay: SAR analysis of small molecule inhibitors of APOBEC3A DNA Deaminase via a fluorescence-based single-stranded DNA deaminase assay - Set 2.; type: functional; details: read-out: IC50_Mean
Chain of DNA dC->dU-editing enzyme APOBEC-3A (P31941 whole entry): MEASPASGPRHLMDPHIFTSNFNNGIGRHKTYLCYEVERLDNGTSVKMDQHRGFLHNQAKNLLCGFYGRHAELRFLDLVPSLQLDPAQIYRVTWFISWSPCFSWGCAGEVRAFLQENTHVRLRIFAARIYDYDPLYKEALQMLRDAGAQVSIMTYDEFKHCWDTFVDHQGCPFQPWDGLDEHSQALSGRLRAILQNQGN

[17] = biological target: DNA dC->dU-editing enzyme APOBEC-3G (Homo sapiens, UniProt Q9HC16); assay: SAR analysis of small molecule inhibitors of APOBEC3G DNA Deaminase via a fluorescence-based single-stranded DNA deaminase assay - Set 2.; type: functional; details: read-out: IC50_Mean
Chain of DNA dC->dU-editing enzyme APOBEC-3G (Q9HC16 whole entry): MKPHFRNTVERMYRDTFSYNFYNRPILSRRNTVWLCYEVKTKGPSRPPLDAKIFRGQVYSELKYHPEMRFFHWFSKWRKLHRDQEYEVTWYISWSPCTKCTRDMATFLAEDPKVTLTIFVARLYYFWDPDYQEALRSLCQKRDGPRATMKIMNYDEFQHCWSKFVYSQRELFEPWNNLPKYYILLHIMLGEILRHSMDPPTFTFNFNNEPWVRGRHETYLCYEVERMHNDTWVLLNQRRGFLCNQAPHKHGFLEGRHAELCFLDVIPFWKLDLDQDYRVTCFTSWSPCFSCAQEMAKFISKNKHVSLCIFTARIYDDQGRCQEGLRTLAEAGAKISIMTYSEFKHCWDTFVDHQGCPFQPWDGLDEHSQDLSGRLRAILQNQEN

[18] = THP-1 cell cytotoxicity, cytotoxicity control, set 4 (AID 504911); type: functional; details: Mycobacterium tuberculosis
[19] = biological target: T5, Apoptotic protease-activating factor 1 (Homo sapiens, UniProt O14727); assay: SAR analysis of small molecule Activators of Apaf-1 in a Fluorescent assay.; type: functional; details: read-out: EC50_Mean;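 also: caspase-3 cleavage of fluorogenic Rh110 DEVD substrate downstream of apoptosome activation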
T5 sequence (O14727 whole entry): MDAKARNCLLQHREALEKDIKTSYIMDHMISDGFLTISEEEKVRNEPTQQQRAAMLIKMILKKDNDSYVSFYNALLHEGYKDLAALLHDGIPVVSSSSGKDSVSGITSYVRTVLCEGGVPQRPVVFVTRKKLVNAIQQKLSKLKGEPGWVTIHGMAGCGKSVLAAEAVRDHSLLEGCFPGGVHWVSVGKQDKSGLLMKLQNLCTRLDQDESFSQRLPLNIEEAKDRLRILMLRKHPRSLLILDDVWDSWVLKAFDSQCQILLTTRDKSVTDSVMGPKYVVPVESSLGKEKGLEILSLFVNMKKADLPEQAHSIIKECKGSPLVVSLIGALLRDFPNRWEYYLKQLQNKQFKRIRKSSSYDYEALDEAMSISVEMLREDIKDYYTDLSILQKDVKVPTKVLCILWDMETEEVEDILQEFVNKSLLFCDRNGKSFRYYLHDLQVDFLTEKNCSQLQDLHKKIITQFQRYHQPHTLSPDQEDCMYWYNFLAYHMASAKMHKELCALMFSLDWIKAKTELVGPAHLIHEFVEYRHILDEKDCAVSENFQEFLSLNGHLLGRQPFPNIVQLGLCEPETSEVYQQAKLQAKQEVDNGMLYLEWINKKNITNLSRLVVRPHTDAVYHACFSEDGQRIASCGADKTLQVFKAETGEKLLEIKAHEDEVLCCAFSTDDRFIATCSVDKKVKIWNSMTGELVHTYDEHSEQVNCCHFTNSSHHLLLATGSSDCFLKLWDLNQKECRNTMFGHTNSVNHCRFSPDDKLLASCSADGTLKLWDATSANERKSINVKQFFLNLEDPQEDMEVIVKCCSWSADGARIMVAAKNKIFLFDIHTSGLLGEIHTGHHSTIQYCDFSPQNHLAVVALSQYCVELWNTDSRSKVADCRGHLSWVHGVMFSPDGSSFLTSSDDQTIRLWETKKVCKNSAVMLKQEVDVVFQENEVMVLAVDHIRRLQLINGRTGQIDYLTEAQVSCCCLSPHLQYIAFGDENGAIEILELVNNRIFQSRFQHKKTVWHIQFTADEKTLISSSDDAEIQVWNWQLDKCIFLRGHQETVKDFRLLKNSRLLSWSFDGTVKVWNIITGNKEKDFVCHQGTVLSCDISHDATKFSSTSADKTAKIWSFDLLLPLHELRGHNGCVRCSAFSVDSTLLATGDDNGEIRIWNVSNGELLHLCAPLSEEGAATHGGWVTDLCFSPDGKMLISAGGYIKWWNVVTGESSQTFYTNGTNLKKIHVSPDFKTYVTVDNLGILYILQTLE

[20] = biological target: T6, Aryl hydrocarbon receptor (Homo sapiens, UniProt P35869); details: Potency;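 also: confirmatory quantitative high-throughput screen measuring activation of the AhR signaling pathway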
T6 sequence (P35869 whole entry): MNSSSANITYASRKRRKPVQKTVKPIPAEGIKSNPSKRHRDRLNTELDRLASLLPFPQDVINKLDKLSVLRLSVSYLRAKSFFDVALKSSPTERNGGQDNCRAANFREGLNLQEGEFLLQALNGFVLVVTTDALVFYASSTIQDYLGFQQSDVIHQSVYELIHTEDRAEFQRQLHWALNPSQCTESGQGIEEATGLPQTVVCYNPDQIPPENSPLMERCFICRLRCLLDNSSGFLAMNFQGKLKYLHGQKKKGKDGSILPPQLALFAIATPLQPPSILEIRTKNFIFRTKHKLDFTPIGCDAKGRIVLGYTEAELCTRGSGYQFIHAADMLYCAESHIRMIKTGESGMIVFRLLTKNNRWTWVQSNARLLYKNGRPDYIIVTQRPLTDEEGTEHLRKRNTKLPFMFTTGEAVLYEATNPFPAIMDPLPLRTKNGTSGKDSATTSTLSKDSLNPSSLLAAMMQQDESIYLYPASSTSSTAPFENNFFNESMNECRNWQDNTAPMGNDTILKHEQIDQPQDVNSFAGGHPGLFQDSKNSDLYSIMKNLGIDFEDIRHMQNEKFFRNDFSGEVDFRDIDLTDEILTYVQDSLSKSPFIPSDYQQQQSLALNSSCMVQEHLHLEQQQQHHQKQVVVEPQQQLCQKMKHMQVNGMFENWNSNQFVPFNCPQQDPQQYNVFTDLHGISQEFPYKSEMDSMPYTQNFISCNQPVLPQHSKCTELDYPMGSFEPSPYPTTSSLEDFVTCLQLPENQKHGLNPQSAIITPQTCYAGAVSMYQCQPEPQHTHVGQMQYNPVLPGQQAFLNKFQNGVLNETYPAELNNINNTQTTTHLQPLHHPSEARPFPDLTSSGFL

O=C(CCCn1c(=S)[nH]c2cc3c(cc2c1=O)OCO3)N1CCN(c2ccc(F)cc2)CC1
CC50 [1]: 26.2 µM (active)
IC50 [2]: 13.5 µM (active)
IC50 [3]: 7.34 µM (active)

CCn1cc(C(=O)NCCCN2CCC(C)CC2)c(=O)c2cc(S(=O)(=O)N(C)C3CCCCC3)ccc21
IC50 [4]: 7.24 µM (active)
IC50 [5]: 7.94 µM (active)

CCOc1ccc(CCNC(=O)C2CC(C)=CCC2C(=O)O)cc1OCC (configuration not stated)
EC50 [6]: 51.3 µM (inactive)
IC50 [7]: 21 µM (active)
AC50 [8]: 15.5 µM (active)

Clc1cccc(Cl)c1CNc1ccc(N2CCCC2)cc1
IC50 [9]: > 80 µM (inactive)
IC50 [2]: 11.9 µM (active)
IC50 [3]: 7.99 µM (active)

Cc1ccc2[nH]c(=O)c3cc(C(=O)N(CCCOC(C)C)Cc4ccco4)sc3c2c1
EC50 [10]: > 89.2 µM (inactive)

O=C(Nc1nnc(C(F)(F)F)s1)C1COc2ccccc2O1 (configuration not stated)
EC50 [11]: 6.26 µM (active)
IC50 [4]: 1.55 µM (active)
IC50 [5]: 1.26 µM (active)

COc1cc(/C=C(\CCC(=O)O)c2nc3ccccc3s2)ccc1OCC(=O)Nc1c(Cl)cccc1Cl
IC50 [7]: 2.3 µM (active)
IC50 [12]: 10.1 µM (active)

CCCN(CC(=O)Nc1ccccc1OC)C(=O)Cc1ccc2c(c1)CCC2
IC50 [13]: 4.79 µM (active)
IC50 [14]: 19.5 µM (active)
IC50 [15]: 1.32 µM (active)

CN(Cc1ccccc1)C(=O)c1nn2cccnc2c1Cl
IC50 [16]: 73.8 µM (inactive)
IC50 [17]: > 99 µM (inactive)

O=C(CSc1nccc(=O)[nH]1)NC1CCCCC1
CC50 [18]: > 100 µM (active)

COC(=O)C(C)(N)Cc1c[nH]c2ccccc12 (configuration not stated)
EC50 [19]: > 100 µM (inactive)

Cc1nc2sc3c(c2c2n[nH]c(=S)n12)CCCC3
IC50 [16]: > 99 µM (inactive)
IC50 [17]: 0.693 µM (active)

N[C@@H](Cc1c[nH]c2ccc(O)cc12)C(=O)O [OXITRIPTAN]
AC50 [20]: 39.8 µM (inconclusive)
